Results: ChEMBL document CHEMBL1909046, “DrugMatrix in vitro pharmacology data”

Tests used:
Cytochrome P450 3A4 = Cytochrome P450 3A4 (Homo sapiens, UniProt P08684); conditions: bti-tn-5b1-4; further: in other assays of this panel Not Active means under 50% inhibition at 10 µM
[1] = target: Kappa-type opioid receptor (Homo sapiens, UniProt P41145); assay: DRUGMATRIX: Opiate kappa (OP2, KOP) radioligand binding (ligand: [3H] Diprenorphine); format: cell membranes, HEK293, Membrane; conditions: hek293; Not Active = under 50% inhibition at 10 µM
Kappa-type opioid receptor, sequence (P41145 whole entry): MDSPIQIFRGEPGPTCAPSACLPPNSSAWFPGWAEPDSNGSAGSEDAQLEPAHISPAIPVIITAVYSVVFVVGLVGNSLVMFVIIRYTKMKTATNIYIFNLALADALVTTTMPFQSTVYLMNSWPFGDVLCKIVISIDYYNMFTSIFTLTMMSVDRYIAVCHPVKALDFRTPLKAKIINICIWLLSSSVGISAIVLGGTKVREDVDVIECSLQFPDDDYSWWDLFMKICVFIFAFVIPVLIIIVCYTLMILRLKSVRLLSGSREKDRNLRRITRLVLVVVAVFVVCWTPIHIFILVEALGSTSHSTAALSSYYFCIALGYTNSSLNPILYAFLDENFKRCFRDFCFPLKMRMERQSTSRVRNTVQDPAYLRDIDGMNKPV

[2] = target: 5-hydroxytryptamine receptor 2B (Homo sapiens, UniProt P41595); format: cell membranes, CHO-K1, Membrane; conditions: for Ki: read-out: Ki; on all read-outs here: in other assays of this panel Not Active means under 50% inhibition at 10 µM
5-hydroxytryptamine receptor 2B, sequence (P41595 whole entry): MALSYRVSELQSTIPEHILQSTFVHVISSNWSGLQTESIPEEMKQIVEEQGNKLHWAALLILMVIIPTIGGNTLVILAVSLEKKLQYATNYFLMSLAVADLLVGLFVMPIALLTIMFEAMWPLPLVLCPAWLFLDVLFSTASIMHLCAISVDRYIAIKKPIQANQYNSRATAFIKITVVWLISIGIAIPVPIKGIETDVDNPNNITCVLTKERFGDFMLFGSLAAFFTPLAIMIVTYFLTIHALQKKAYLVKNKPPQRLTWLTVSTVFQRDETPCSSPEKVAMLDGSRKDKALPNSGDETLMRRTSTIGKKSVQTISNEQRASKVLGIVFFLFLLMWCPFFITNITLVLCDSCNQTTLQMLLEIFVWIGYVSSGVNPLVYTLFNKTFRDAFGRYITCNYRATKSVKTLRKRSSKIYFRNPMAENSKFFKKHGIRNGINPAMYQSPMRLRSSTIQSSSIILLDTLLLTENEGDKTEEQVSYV

[3] = target: T1, 5-hydroxytryptamine receptor 2C (Homo sapiens, UniProt P28335); assay: DRUGMATRIX: Serotonin (5-Hydroxytryptamine) 5-HT2C radioligand binding (ligand: [3H] Mesulergine); format: cell membranes, CHO-K1, Membrane; conditions: Not Active = under 50% inhibition at 10 µM; for Ki: read-out: Ki
T1 sequence (P28335 whole entry): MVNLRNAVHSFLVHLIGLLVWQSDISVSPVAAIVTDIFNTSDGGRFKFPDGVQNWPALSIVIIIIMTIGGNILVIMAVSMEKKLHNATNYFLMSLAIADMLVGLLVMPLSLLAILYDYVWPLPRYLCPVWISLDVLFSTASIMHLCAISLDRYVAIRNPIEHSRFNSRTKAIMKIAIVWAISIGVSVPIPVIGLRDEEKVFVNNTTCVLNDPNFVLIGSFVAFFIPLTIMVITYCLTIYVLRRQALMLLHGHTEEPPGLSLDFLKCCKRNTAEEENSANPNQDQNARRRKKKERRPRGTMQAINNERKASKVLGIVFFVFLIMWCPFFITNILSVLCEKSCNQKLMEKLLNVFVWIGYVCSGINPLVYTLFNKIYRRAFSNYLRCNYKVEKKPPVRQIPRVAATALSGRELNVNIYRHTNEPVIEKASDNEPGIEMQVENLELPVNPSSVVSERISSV

Melanocortin receptor 4 = Melanocortin receptor 4 (Homo sapiens, UniProt P32245); format: cell membranes, Membrane; conditions: hek293; further: in other assays of this panel Not Active means under 50% inhibition at 10 µM
Melanocortin receptor 4, sequence (P32245 whole entry): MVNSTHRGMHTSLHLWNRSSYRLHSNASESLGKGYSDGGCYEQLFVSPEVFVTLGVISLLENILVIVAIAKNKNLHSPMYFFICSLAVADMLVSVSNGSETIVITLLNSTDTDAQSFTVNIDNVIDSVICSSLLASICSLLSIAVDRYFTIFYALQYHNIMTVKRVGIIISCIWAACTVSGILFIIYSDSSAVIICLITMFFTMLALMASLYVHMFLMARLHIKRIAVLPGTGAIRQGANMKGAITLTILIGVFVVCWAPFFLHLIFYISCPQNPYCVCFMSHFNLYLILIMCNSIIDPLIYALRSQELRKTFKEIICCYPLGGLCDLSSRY

[4] = target: T2, Neuropeptide Y receptor type 2 (Homo sapiens, UniProt P49146); format: cell membranes, Membrane; conditions: kan-ts; further: in other assays of this panel Not Active means under 50% inhibition at 10 µM
T2 sequence (P49146 whole entry): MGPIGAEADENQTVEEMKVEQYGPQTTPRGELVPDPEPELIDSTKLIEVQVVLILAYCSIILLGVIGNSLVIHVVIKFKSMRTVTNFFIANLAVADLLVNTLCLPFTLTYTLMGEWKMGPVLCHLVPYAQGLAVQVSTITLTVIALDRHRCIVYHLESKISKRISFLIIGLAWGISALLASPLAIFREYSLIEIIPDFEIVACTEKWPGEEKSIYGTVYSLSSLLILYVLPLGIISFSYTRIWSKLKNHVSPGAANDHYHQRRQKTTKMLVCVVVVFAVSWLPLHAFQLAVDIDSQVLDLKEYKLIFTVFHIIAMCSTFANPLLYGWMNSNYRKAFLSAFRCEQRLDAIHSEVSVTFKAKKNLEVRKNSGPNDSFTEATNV

Cytochrome P450 3A4, sequence (P08684 whole entry): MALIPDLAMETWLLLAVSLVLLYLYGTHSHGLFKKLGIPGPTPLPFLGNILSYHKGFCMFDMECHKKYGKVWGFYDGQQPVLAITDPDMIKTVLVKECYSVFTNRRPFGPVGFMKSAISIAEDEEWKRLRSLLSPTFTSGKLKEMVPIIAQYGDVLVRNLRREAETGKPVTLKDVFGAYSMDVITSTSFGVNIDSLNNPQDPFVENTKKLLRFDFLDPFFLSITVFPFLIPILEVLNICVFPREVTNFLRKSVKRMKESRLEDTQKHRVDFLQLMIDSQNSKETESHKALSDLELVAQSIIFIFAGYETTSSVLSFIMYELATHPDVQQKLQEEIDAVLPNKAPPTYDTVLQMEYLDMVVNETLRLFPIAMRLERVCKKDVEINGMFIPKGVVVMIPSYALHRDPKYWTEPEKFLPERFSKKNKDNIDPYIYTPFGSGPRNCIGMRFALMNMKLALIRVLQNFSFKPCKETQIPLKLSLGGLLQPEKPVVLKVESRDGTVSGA

Row | SMILES | IC50 (Cytochrome P450 3A4) | Ki (Cytochrome P450 3A4) | IC50 [1] | IC50 ([2]; cho-k1) | IC50 ([3]; cho-k1) | IC50 (Melanocortin receptor 4) | IC50 [4] | IC50 ([2]; read-out: IC50) | Ki [2] | IC50 ([3]; read-out: IC50) | Ki [3]
1 | CCCCC1=NC2(CCCC2)C(=O)N1Cc1ccc(-c2ccccc2-c2nnn[nH]2)cc1 [IRBESARTAN] | Not Active | Not Active | Not Active | Not Active | Not Active | Not Active | Not Active |  |  |  | 
2 | CN1CCC(=C2c3ccccc3CC(=O)c3sccc32)CC1 [KETOTIFEN] | Not Active | Not Active | Not Active |  |  | Not Active | Not Active | 46 nM | 29 nM | 160 nM | 84 nM
3 | CCn1cc(C(=O)O)c(=O)c2cc(F)c(N3CCNC(C)C3)c(F)c21 (centres undefined) [LOMEFLOXACIN] | Not Active | Not Active | Not Active | Not Active | Not Active | Not Active | Not Active |  |  |  | 
4 | CN1CCCC(CN2c3ccccc3Sc3ccccc32)C1 (centres undefined) [MEPAZINE] | Not Active | Not Active | Not Active |  |  | Not Active | Not Active | 514 nM | 327 nM | 495 nM | 259 nM
5 | Cc1cccc(C)c1NC(=O)C1CCCCN1C (centres undefined) [MEPIVACAINE] | Not Active | Not Active | Not Active | Not Active | Not Active | Not Active | Not Active |  |  |  | 
6 | CN(C)C(=N)NC(=N)N [METFORMIN] | Not Active | Not Active | Not Active | Not Active | Not Active | Not Active | Not Active |  |  |  | 
7 | CC(C)(C)NCC(O)COc1cccc2c1CC(O)C(O)C2 (centres undefined) [NADOLOL] | Not Active | Not Active | Not Active | Not Active | Not Active | Not Active | Not Active |  |  |  | 
8 | NC(=O)c1cccnc1 [NIACINAMIDE] | Not Active | Not Active | Not Active | Not Active | Not Active | Not Active | Not Active |  |  |  | 
9 | CS(=O)(=O)Nc1ccc([N+](=O)[O-])cc1Oc1ccccc1 [NIMESULIDE] | Not Active | Not Active | Not Active | Not Active | Not Active | Not Active | Not Active |  |  |  | 
10 | CN1C(=O)CN=C(c2ccccc2)c2cc([N+](=O)[O-])ccc21 [NIMETAZEPAM] | Not Active | Not Active | Not Active | Not Active | Not Active | Not Active | Not Active |  |  |  | 
11 | COc1ccc2c(c1OC)C(=O)O[C@@H]2[C@H]1c2c(cc3c(c2OC)OCO3)CCN1C [NOSCAPINE] | Not Active | Not Active | Not Active | Not Active | Not Active | Not Active | Not Active |  |  |  | 
12 | NC(=O)N1c2ccccc2CC(=O)c2ccccc21 [OXCARBAZEPINE] | Not Active | Not Active | Not Active | Not Active | Not Active | Not Active | Not Active |  |  |  | 
13 | COc1ccnc(C[S+]([O-])c2nc3ccc(OC(F)F)cc3[nH]2)c1OC (centres undefined) [PANTOPRAZOLE] | Not Active | Not Active | Not Active | Not Active | Not Active | Not Active | Not Active |  |  |  | 
14 | CCc1ccc(CCOc2ccc(CC3SC(=O)NC3=O)cc2)nc1 (centres undefined) [PIOGLITAZONE] | Not Active | Not Active | Not Active | Not Active | Not Active | Not Active | Not Active |  |  |  | 
15 | CCCNC(C)C(=O)Nc1ccccc1C (centres undefined) [PRILOCAINE] | Not Active | Not Active | Not Active | Not Active | Not Active | Not Active | Not Active |  |  |  | 
16 | CCN(CC)CCNC(=O)c1ccc(N)cc1 [PROCAINAMIDE] | Not Active | Not Active | Not Active | Not Active | Not Active | Not Active | Not Active |  |  |  | 
17 | CCN(CC)CCCC(C)Nc1c2ccc(Cl)cc2nc2ccc(OC)cc12 (centres undefined) [QUINACRINE] | Not Active | Not Active | Not Active | Not Active | Not Active | Not Active | Not Active |  |  |  | 
18 | C[C@]12C=CC(=O)C=C1CC[C@H]1[C@@H]3C[C@@H](O)[C@](O)(C(=O)CO)[C@@]3(C)C[C@H](O)[C@@]12F [TRIAMCINOLONE] | Not Active | Not Active | Not Active | Not Active | Not Active | Not Active | Not Active |  |  |  | 
19 | CC[C@]1(O)C[C@@H]2CN(CCc3c([nH]c4ccccc34)[C@@](C(=O)OC)(c3cc4c(cc3OC)N(C)[C@H]3[C@@](O)(C(N)=O)[C@H](O)[C@]5(CC)C=CCN6CC[C@]43[C@@H]65)C2)C1 [VINDESINE] | Not Active | Not Active | Not Active | Not Active | Not Active | Not Active | Not Active |  |  |  | 
20 | CCN(C(C)=O)c1cccc(-c2ccnc3c(C#N)cnn23)c1 [ZALEPLON] | Not Active | Not Active | Not Active | Not Active | Not Active | Not Active | Not Active |  |  |  | 
